According to patent US20260224716A1, “PTH ANALOGS FOR THE TREATMENT OF HYPOPARATHYROIDISM” (priority 2020, published 2026):
*1 amine or outer side, *2 acyl side, *3 side chain or, on linkers, in order; H or OH if unused. Where a SMILES comes first, the peptide text is derived from it. Side-chain parts run from the residue outwards. [ ]: non-standard residue; d: D form. The star is where a group is joined. C18 diacid = O=C(O)CCCCCCCCCCCCCCCCC(=O)*; γGlu = O=C(O)[C@H](CCC(=O)[*:2])N[*:1]; AEEA = NCCOCCOCC(=O)O; Sar = CNCC(=O)O

Legend:
[1] = Pharmacokinetics of A8 PTH prodrugs in monkeys, single subcutaneous dose (Example 8); format: in vivo, cynomolgus monkeys; conditions: single SC dose 25 nmol/kg, FIGS. 7A, 7B
Description: The pharmacokinetic profile of PTH analogues following a single subcutaneous dose to cynomolgus monkeys and an evaluation of the pharmacodynamic response of serum calcium and phosphorus was investigated. A total of six monkey were used in this test 2 males and 4 females ranging in age from 2-4 years old at beginning of the study and having a weight of at least 2.5 kg.
Animals were assigned to groups as noted in the Table 6 below. Animals were dosed by subcutaneous injection. Dose administration was staggered. The Group 1
male was dosed once, and the remaining two Group 1 females and all Group 2 animals were dosed once, approximately four days later. First day of dosing was designated as Study Day (SD) 1 for each animal. The dose volume was 0.3 mL/kg. Individual dose volumes were calculated based on the animals' most recently recorded body weight. […]
Pharmacokinetic mean concentration-time data was analyzed using non-compartmental methods (Phoenix® WinNonlin® Version 7.0 or higher) based on the route of administration. The following parameters were calculated whenever possible and as data allows: Cmax, Tmax, and AUC. […]
Results from these pharmacokinetic (PK) studies are provided in FIGS. 7A and 7B wherein the concentration of the administered prodrug form and its activate drug form (produced after in vivo non-enzymatic cleavage of the dipeptide prodrug element) were measured over time.

[2] = Rate of model dipeptide cleavage from hexapeptide in PBS (HPLC, LC-MS); format: physicochemical; conditions: buffer
Description: The solution was incubated at 37° C.
The flow rate was 1 ml/min.

[3] = tested on: serum calcium; test: Pharmacology in normal rats: serum calcium (Example 5); format: in vivo, Sprague Dawley rats; conditions: FIG. 5A; 20, 40, 80 nmol/kg SC, dose-responsive over 72 hours
Description: (§1) Each group of rats was bled immediately before the injection and after 6, 24, 48 and 72 hours. Blood was spun and serum was collected and stored at −20° C. Calcium and phosphorous concentrations were determined used commercially available assays following the manufacturer's instructions.

[4] = tested on: serum phosphate; test: Pharmacology in normal rats: serum phosphate (Example 5); format: in vivo, Sprague Dawley rats; conditions: FIG. 5B; 20, 40, 80 nmol/kg SC, dose-responsive over 72 hours
Description: as §1

[5] = tested on: serum calcium; test: Pharmacology in normal mice: serum calcium (Example 6); format: in vivo, C57Bl6/J mice; conditions: FIG. 5C, 20 or 40 nmol/kg SC, 24 and 48 hours
Description: Each group of mice was bled immediately before the injection and after 24 and 48 hours. Blood was centrifuges and serum was collected and stored at −20 C. Calcium concentrations were determined used commercially available assays following the manufacturer's instructions.

Row | Compound | plasma concentration versus singly fatty acylated prodrug SEQ ID: 94 [1] | half-life at 1 mg/ml [2] | effect on serum calcium levels [3] | effect on serum phosphate [4] | effect on serum calcium levels [5]
1 | CC[C@H](C)[C@H](NC(=O)[C@H](CCC(=O)O)NC(=O)[C@H](CO)NC(=O)[C@@H](NC(=O)[C@H](CO)NC(=O)CN(C)C(=O)[C@H](N)CCCCNC(=O)CC[C@H](NC(=O)COCCOCCNC(=O)COCCOCCNC(=O)CC[C@H](NC(=O)CCCCCCCCCCCCCCCCC(=O)O)C(=O)O)C(=O)O)C(C)C)C(=O)N[C@@H](CCC(N)=O)C(=O)N[C@@H](CC(C)C)C(=O)N[C@@H](C)C(=O)N[C@@H](Cc1c[nH]cn1)C(=O)N[C@@H](CC(N)=O)C(=O)N[C@@H](CC(C)C)C(=O)NCC(=O)N[C@@H](CCCCN)C(=O)N[C@@H](Cc1c[nH]cn1)C(=O)N[C@@H](CC(C)C)C(=O)N[C@@H](CC(N)=O)C(=O)N[C@@H](CO)C(=O)N[C@@H](CCSC)C(=O)N[C@@H](CCC(=O)O)C(=O)N[C@@H](CCCNC(=N)N)C(=O)N[C@H](C(=O)N[C@@H](CCC(=O)O)C(=O)N[C@@H](Cc1c[nH]c2ccccc12)C(=O)N[C@@H](CC(C)C)C(=O)N[C@@H](CCCNC(=N)N)C(=O)N[C@@H](CCCCN)C(=O)N[C@@H](CCCCN)C(=O)N[C@@H](CC(C)C)C(=O)N[C@@H](CCC(N)=O)C(=O)N[C@@H](CC(=O)O)C(=O)N[C@H](C(=O)N[C@@H](Cc1c[nH]cn1)C(=O)N[C@@H](CCCCNC(=O)CC[C@H](NC(=O)COCCOCCNC(=O)COCCOCCNC(=O)CC[C@H](NC(=O)CCCCCCCCCCCCCCCCC(=O)O)C(=O)O)C(=O)O)C(=O)O)C(C)C)C(C)C [SEQ ID NO: 95] (H-[dK]([γGlu-AEEA-AEEA-γGlu-C18 diacid])[Sar]SVSEIQLAHNLGKHLNSMERVEWLRKKLQDVHK([γGlu-AEEA-AEEA-γGlu-C18 diacid])-OH) | higher concentration that is sustained for a longer period | > 20.8 days |  |  | 
2 | SVSEIQLMHNLGKHLNSMERVEWLRKKLQDVHK(γE-COC16H32CO2H)F-OH (SVSEIQLMHNLGKHLNSMERVEWLRKKLQDVHXF; K33 γE-diacidC18 acylation; C-terminal acid; SITE 33 MISC_FEATURE - Xaa at position 33 is Lys wherein the side chain is acylated with COC16H32CO2H via a gamma Glu spacer; listed as Homo sapiens) [SEQ ID NO: 102, PTH(1-34), K33(γE-diacidC18)] |  |  | increase serum calcium levels | reduce serum phosphate | increase serum calcium levels
